ChEMBL document CHEMBL5465560, “Selectivity Literature for EUbOPEN Chemogenomic Library” (2024)
Blank lines part the entries; values can stand above or below the compound they belong to.

Tests used:
[1] = tested on: Mast/stem cell growth factor receptor Kit (Homo sapiens), P10721 [V559D,T670I]; details: at 10 µM
[2] = target: Cyclin-dependent kinase 7 (Homo sapiens, UniProt P50613); assay: Selectivity interaction (KINOMEscan (DiscoverX, competition-binding assay)) EUB0001868a CDK7
[3] = target: T1, Serine/threonine-protein kinase Nek9 (Homo sapiens) (UniProt Q8TD19); assay: Selectivity interaction (KinomeScan (DiscoverX)) EUB0001049a NEK9; details: at 1 µM
T1 sequence (whole entry): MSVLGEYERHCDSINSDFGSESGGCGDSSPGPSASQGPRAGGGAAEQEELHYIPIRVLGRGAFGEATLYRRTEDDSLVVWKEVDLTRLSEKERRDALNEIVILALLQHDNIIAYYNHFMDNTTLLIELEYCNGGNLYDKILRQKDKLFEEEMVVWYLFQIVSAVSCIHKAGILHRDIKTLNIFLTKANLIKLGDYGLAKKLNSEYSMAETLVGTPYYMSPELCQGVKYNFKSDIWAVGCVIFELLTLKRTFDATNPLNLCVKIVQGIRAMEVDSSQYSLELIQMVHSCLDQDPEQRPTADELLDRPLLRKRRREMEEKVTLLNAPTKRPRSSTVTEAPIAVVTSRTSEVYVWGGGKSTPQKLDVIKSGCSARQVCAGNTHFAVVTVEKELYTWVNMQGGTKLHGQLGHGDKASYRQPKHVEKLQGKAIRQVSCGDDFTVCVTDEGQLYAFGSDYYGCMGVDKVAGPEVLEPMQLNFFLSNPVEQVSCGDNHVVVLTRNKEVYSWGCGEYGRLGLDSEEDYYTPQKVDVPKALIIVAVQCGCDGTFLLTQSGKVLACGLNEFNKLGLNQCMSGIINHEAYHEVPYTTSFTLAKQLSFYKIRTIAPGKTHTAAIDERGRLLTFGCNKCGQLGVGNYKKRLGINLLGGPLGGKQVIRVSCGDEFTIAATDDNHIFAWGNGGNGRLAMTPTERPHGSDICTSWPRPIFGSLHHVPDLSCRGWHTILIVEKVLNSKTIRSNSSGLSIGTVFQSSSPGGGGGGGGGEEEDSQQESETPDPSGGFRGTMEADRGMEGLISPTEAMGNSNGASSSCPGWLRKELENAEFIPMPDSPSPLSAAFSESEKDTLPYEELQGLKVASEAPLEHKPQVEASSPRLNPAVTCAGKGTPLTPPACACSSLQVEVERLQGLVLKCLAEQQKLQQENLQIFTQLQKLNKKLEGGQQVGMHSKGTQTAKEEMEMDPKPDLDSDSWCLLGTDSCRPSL

[4] = target: Sodium channel protein type 2 subunit alpha (Homo sapiens) (UniProt Q99250); assay: Selectivity interaction (Eurofins CEREP Diversity Profile (receptors and ion channels)) EUB0000279b SCN2A; details: at 10 µM
Sodium channel protein type 2 subunit alpha (Homo sapiens), sequence (Q99250 whole entry, looked up): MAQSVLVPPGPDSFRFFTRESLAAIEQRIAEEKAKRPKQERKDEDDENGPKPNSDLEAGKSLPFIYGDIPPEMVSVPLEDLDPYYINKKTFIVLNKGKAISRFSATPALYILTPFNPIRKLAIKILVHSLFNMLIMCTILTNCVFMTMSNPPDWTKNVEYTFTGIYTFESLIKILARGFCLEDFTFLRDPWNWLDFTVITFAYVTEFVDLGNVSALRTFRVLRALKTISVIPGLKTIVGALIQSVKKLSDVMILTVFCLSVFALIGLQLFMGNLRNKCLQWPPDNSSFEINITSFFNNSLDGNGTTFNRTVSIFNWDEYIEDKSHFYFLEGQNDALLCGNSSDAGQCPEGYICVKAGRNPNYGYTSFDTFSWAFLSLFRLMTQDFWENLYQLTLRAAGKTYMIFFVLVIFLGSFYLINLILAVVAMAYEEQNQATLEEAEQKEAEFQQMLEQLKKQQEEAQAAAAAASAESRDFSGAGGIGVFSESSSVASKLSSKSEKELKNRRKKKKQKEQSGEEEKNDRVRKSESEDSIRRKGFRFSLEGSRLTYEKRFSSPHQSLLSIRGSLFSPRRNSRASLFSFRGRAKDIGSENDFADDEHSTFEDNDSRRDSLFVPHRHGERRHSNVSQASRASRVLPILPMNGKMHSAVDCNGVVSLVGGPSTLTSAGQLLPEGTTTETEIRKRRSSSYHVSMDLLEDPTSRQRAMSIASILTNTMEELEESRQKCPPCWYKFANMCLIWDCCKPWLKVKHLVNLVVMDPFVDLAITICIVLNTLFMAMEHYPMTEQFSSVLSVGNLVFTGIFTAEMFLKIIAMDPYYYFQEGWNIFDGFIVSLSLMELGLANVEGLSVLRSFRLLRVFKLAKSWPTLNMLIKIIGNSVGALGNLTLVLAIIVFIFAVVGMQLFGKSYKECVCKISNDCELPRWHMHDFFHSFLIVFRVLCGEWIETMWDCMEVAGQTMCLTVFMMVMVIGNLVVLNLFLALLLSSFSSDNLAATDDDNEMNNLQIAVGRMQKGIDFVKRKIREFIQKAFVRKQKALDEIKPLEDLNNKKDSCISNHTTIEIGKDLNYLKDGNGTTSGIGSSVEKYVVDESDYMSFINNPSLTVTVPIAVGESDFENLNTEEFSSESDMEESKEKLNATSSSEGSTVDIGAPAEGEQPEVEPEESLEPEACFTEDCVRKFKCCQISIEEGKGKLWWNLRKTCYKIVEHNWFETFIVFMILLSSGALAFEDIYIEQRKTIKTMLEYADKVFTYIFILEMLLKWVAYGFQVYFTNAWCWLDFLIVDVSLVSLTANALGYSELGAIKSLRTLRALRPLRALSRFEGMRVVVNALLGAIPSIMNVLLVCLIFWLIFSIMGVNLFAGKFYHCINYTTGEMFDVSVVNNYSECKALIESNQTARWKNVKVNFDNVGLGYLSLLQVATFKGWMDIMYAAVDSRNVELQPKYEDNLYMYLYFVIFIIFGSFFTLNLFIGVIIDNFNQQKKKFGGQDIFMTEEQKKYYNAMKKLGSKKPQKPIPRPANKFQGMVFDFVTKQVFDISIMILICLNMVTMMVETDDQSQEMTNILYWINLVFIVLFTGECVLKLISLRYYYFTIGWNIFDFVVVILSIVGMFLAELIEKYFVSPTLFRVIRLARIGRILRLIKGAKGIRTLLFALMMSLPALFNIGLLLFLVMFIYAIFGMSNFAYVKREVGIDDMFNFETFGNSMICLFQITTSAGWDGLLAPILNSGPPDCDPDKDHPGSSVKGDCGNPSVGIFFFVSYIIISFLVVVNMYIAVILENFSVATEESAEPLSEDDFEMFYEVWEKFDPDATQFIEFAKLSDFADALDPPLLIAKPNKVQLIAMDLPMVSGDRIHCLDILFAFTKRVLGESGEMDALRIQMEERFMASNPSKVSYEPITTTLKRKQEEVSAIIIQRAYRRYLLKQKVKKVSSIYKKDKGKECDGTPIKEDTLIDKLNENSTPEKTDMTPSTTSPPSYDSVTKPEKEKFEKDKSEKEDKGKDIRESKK

[5] = target: STE20/SPS1-related proline-alanine-rich protein kinase (Homo sapiens) (UniProt Q9UEW8); assay: Selectivity interaction (KinomeScan (DiscoverX)) EUB0000595a STK39; details: at 10 µM
[6] = target: Myosin light chain kinase, smooth muscle (Homo sapiens, UniProt Q15746); assay: Selectivity interaction (KinomeScan (DiscoverX)) EUB0000229b MYLK; details: at 10 µM
Myosin light chain kinase, smooth muscle, sequence (Q15746 whole entry): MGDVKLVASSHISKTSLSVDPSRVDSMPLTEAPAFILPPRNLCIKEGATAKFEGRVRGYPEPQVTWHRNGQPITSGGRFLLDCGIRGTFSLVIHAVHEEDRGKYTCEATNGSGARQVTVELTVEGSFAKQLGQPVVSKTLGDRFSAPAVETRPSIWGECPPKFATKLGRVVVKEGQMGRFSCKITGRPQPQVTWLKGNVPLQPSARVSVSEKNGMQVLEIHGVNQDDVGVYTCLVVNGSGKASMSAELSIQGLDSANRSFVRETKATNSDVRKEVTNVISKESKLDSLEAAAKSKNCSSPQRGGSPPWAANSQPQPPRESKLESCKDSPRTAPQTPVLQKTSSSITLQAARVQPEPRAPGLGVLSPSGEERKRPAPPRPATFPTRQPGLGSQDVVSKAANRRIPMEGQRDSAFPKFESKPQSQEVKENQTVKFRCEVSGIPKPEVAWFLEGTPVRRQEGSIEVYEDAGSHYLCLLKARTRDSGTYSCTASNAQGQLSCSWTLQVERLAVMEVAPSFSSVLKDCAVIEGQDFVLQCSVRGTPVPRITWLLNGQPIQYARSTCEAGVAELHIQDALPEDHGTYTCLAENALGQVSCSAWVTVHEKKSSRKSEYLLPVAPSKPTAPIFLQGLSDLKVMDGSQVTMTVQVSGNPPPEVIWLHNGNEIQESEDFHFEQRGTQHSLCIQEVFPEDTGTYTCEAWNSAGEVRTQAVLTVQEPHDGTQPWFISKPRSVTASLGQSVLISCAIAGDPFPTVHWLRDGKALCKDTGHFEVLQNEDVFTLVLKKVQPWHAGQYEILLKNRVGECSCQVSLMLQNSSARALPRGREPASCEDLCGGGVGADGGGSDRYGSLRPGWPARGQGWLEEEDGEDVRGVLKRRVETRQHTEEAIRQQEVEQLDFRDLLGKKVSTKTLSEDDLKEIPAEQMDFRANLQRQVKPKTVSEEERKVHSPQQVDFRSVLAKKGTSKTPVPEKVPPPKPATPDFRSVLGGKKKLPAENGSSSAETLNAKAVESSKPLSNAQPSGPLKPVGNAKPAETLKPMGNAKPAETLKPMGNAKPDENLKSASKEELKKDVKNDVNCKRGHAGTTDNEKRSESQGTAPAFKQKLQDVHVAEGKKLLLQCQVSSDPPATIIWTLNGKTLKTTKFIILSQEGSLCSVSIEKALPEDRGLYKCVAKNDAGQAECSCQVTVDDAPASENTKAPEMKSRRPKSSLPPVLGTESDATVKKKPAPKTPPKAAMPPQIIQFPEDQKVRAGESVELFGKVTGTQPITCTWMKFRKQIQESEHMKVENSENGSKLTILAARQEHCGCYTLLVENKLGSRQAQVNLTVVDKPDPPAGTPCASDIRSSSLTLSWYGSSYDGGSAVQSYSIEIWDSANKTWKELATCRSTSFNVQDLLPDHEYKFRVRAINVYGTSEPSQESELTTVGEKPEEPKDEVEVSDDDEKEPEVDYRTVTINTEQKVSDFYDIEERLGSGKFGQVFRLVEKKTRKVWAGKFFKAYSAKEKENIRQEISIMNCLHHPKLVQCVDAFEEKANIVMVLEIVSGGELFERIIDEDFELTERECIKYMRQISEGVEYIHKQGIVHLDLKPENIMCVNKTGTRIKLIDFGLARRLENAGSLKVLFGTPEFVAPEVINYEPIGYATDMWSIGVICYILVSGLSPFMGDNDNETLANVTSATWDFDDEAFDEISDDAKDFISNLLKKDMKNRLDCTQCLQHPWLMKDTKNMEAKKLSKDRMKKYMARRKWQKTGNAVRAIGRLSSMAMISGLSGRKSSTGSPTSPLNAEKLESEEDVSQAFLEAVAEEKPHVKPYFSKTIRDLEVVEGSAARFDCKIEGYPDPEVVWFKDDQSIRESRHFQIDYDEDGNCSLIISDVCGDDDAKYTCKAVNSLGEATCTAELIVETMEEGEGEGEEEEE

[7] = target: MAP kinase-interacting serine/threonine-protein kinase 2 (Homo sapiens, UniProt Q9HBH9); assay: Selectivity interaction (Upstate Kinase Profiler service (Millipore)) EUB0000056c MKNK2; details: at 1 µM
MAP kinase-interacting serine/threonine-protein kinase 2, sequence (Q9HBH9 whole entry, looked up): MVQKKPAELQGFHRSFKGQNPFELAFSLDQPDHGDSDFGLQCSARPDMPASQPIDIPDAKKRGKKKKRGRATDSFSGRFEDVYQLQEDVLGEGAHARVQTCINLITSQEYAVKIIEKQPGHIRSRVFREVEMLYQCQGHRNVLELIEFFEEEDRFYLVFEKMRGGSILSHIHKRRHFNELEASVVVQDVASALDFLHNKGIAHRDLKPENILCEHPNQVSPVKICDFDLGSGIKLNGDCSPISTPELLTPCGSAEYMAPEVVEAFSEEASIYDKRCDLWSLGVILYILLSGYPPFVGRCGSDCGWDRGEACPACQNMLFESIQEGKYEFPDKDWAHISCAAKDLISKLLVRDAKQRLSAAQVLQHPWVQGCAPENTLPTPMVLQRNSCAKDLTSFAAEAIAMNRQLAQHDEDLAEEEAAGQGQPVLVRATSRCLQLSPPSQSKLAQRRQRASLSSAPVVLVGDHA

[8] = target: T2, Ephrin type-A receptor 8 (Homo sapiens) (UniProt P29322); assay: Selectivity interaction (SelectScreen profiling (Invitrogen)) EUB0000607a EPHA8; details: at 2 µM
T2 sequence (whole entry): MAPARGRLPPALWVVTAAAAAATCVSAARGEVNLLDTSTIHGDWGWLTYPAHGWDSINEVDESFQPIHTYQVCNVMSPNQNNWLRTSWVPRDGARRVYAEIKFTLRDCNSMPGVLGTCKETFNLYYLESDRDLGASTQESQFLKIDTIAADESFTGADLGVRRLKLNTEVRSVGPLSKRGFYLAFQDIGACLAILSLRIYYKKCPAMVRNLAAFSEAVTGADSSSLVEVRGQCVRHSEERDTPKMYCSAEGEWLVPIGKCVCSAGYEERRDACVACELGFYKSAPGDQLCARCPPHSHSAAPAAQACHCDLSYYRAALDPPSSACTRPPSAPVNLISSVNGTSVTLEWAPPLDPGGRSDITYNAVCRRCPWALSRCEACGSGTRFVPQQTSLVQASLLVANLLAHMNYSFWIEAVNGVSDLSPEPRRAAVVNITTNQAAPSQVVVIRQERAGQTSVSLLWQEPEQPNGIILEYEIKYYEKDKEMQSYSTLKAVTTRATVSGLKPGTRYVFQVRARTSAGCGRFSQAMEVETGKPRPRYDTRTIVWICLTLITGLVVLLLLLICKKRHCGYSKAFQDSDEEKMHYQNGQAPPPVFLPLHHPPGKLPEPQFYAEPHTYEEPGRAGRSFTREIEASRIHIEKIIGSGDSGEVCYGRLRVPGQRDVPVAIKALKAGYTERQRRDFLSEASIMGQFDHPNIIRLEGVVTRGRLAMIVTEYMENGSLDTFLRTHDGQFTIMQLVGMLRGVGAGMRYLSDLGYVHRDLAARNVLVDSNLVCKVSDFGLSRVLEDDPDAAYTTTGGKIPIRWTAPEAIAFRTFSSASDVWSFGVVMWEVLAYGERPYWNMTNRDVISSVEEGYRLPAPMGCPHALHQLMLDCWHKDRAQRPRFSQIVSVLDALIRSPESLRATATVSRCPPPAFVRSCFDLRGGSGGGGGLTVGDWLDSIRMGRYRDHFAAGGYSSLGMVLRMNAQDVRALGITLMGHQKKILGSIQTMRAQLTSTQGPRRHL

Cyclin-dependent kinase 7, sequence (P50613 whole entry): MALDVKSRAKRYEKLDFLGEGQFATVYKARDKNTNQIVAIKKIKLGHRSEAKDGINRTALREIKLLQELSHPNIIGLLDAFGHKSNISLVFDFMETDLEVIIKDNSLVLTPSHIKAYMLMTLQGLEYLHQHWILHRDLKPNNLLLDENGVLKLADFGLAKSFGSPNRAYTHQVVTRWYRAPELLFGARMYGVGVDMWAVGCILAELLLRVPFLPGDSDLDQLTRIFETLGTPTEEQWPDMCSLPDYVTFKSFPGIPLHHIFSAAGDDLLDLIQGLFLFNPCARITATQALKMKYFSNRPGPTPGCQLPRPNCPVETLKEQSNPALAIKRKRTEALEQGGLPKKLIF

Structure (SMILES): Cc1cc([C@@H](C)Nc2ccccc2C(=O)O)c2nc(N3CCOCC3)cc(=O)n2c1 [AZD-6482]
% of control [1]: 91%

Kd [2]: 880 nM
Structure (SMILES): Cc1cc(-c2ccnc(Nc3cnn(C)c3)n2)ccc1CNC(=O)N1CC(OC(C)C)C1

Structure (SMILES): COc1cc(Nc2nc(C)cc(-c3cnn4nc(OC)ccc34)n2)cc(C(F)(F)F)c1
% of control [3]: 94%

% of control [4]: 100%
Structure (SMILES): CC(=O)c1cc(-c2ccccc2OCC2CC2)c2ncccn12

Structure (SMILES): COCC(=O)NC/C=C/c1ccc2ncnc(Nc3ccc(Oc4ccc(C)nc4)c(C)c3)c2c1 [CP-724714]
% of control [5]: 100%

Structure (SMILES): COc1cc(N(C)c2ccnc3ccc(C(F)(F)F)cc23)cc(OC)c1OC
% binding [6]: 92%

% of inhibition [7]: 85%
Structure (SMILES): Cc1ccc(-c2ccc3c(ccc4sc5c(c43)NC[C@@H](C)NC5=O)n2)cn1

Structure (SMILES): CNC(=O)Nc1ccc(-c2nc(N3CC4CCC(C3)O4)c3cnn(C4CCC5(CC4)OCCO5)c3n2)cc1
% of inhibition [8]: 24%
